Laboratory results from patent US6391887B1, “3,4-Dihydroquinoline derivatives as nitrogen monoxide synthase (NOS) inhibitors” (Schering Aktiengesellschaft, priority 1998, dated 2002).

Biological target: bNOS (UniProt P29475)
Experiment: bNOS inhibition (method of Bredt and Snyder)
Assay type: biochemical
Source text: The NOS-inhibitory action of the compounds of Formula (I) and their physiologically compatible salts can be determined according to the methods by Bredt and Snyder in Proc. Natl. Acad. Sci. USA (1989) 86, 9030-9033.

| IC50 [nM] | Compound |
| --- | --- |
| 1400 | NC1=Nc2cc(N3CCOCC3)ccc2C2CCCC12 (centres unmarked) [Example 21, 4-Amino-7-(4-morpholinyl)-2,3,3a,9b-tetrahydro-1H-cyclopenta[c]quinoline] |
| 1100 | COC(=O)CCc1ccc2c(c1)N=C(N)C1CCCC21 (centres unmarked) [Example 22, 4-Amino-7-(methoxycarbonylethyl)-2,3,3a,9b-tetrahydro-1H-cyclopenta[c]quinoline] |
